From paper PMC5073322, “Novel Natural Product-like Caged Xanthones Bearing a Carbamate Moiety Exhibit Antitumor Potency and Anti-Angiogenesis Activity In vivo” (Scientific Reports, 2016)

What was measured:
[1] = tested on: Hsp90 client proteins in HepG2 cells; assay: Western blot of Hsp90 client proteins; type: cell-based, human; conditions: HepG2, 24 h
Description: Figure 9 (A) The caged compounds (50 μM) inhibited the Hsp90 ATPase activity in a HTRF-based inhibition assay. (B) The IC50 values for the inhibition of Hsp90 ATPase by 8n, 8o and GA as detected by the HTRF Transcreener ADP kit. The test compounds were diluted to obtain a range of concentrations and incubated with Hsp90 and ATP. The amount of ADP generated was detected. (C) Western blots of the Hsp90 client proteins after HepG2 cells were treated with the indicated concentrations of 8n for 24 h. (D) The mRNA expression of VEGF was determined by real-time quantitative reverse-transcriptase polymerase chain reaction (RT-PCR) and analysed by the delta Ct method. The bars represent the means with standard error of the mean (SEM) and the fold change in the VEGF/GAPDH ratio relative to the vehicle-treated group. The different significance levels are indicated as **P < 0.05.
The influence of 8n on the degradation of Hsp90 client proteins was monitored by WB analysis. HepG2 cells were treated with different concentrations of 8n for 24 h. […] HIF-1α, as a key modulator of angiogenesis and an important client protein of Hsp90, was also examined, and the expression of HIF-1α decreased after treatment with 8n.
The cells were washed with PBS and lysed with ice-cold lysis buffer supplemented with protease inhibitors (Roche) for 30 min. The protein content of the supernatants of lysates was determined using a bicinchoninic acid assay. Equal 50 μg total protein samples were separated by sodium dodecyl sulphate polyacrylamide gel electrophoresis (SDS−PAGE) and then transferred onto PVDF membranes (Millipore) at 90 volts for 90 mins. After blocking the membrane with 5% skim milk for 1 h at RT, the membranes were incubated with the primary antibody overnight at 4 °C. Then, the membranes were incubated with a DyLight 800-labeled secondary antibody in the dark for 1 h. Detection of specific proteins was performed with the Odyssey infrared imaging system (LI-COR, Lincoln, Nebraska, USA).

HUVECs [2] = assay: Transwell invasion assay; type: cell-based, human; conditions: 0.25 μM
Description: (§1) GA was reported to inhibit tumour angiogenesis and may be a viable drug candidate for anti-angiogenesis and anticancer therapies. Therefore, the anti-angiogenesis activity of the caged xanthone derivative 8n was evaluated. Human umbilical vein endothelial cells (HUVECs) were used in all experiments. Cell migration is critical for endothelial cells to form blood vessels during angiogenesis, tumour growth and metastasis. […] Endothelial cell invasion is a critical part of angiogenesis; therefore, a transwell assay was performed to evaluate the ability of inactivated HUVECs to pass through the transwell membrane barrier in the presence of 8n.
Figure 8 8n had anti-angiogenesis activity in vitro and in vivo. (A) A wound-healing assay was used to evaluate the motility of HUVECs after treatment with 8n for 24 h. (B) Changes in cell motility were evaluated using a transwell assay of cell migration and invasion. (C) The effect of 8n on tube formation by HUVECs. HUVECs were incubated with 8n for 6 h and then transferred to Matrigel for 6 h. (D) Zebrafish embryos treated with blank control or 1, 10, or 50 μg/ml of 8n.
A transwell migration assay was performed as previously described with minor modifications. HUVECs (4×10^4 cells per well) with compound 8n were seeded in the top of transwells (Corning Incorporated) and allowed to migrate for 4 h at 37 °C, 5% CO2 and 1% O2. […]

A549/cisplatin = assay: MTT antiproliferative assay, cisplatin-resistant A549; type: cell-based; conditions: read-out: IC50 A549/cisplatin, MTT, 72 h
Description: The inhibition of tumour cell growth was measured by a modified tetrazolium (MTT) salt assay, as previously described[39]. Cells were cultured in a 96-well plate and treated with culture medium alone or different concentrations of the compounds. The cells were incubated for 72 h, and then, the MTT assay reagent was added. After a 4 h incubation, the formazan product was quantitated at 570 nm. The IC50 values (the concentrations that gave rise to 50% inhibition of cell viability) were calculated using GraphPad Prism 6 using a variable slope (four parameters).

HUVECs [3] = assay: Tube formation assay; type: cell-based, human; conditions: Matrigel
Description: as §1
Figure 8 8n had anti-angiogenesis activity in vitro and in vivo. (A) A wound-healing assay was used to evaluate the motility of HUVECs after treatment with 8n for 24 h. (B) Changes in cell motility were evaluated using a transwell assay of cell migration and invasion. (C) The effect of 8n on tube formation by HUVECs. […] (D) Zebrafish embryos treated with blank control or 1, 10, or 50 μg/ml of 8n.
The tube formation assay was performed as previously reported with some modifications. A 48-well cell culture plate and the tips used were pre-chilled at −20 °C for 10 mins and then carefully coated with Matrigel (200 μL/well; Becton Dickinson, Bedford, MA, USA). Caution was taken to avoid bubbles. […]

[4] = tested on: Caspase-3 and PARP in HepG2 cells; assay: Western blot of apoptosis-related proteins; type: cell-based, human; conditions: HepG2, 24 h
Description: Figure 6 (A) Morphological changes in cancer cells and nuclei. (B) 8n induced apoptosis in HepG2 cells. Cultured HepG2 cells were treated with the indicated concentrations of 8n for 48 h. The cells were then were stained with DAPI and observed by fluorescence microscopy. (C) 8n induces apoptosis in a dose-dependent manner. HepG2 cells were treated with different concentrations of 8n for 48 h, and Annexin V and propidium iodide staining were performed. (D) The percentages of early apoptotic and total apoptotic cells were quantified using flow cytometry. *p < 0.05; **p < 0.01. (E) The expression of apoptotic-related proteins in HepG2 cells treated with 8n. HepG2 cells were treated with various concentrations of 8n for 24 h and were then harvested and lysed. The expression levels of Caspase-3, Cleaved Caspase-3, Bax, Bcl-2, PARP and cleaved PARP were measured by Western blotting. TEXT PRINTED IN THE PICTURE: (C) Compound 8n: Dead 1.50 % (Control); Late Apop./Dead 4.95 % (Control); Early Apop. 1.05 % (Control); Dead 1.95 % (0.1 μM); Late Apop./Dead 7.80 % (0.1 μM); Early Apop. 1.60 % (0.1 μM); Dead 7.81 % (0.3 μM); Late Apop./Dead 9.19 % (0.3 μM); Early Apop. […]
The cells were washed with PBS and lysed with ice-cold lysis buffer supplemented with protease inhibitors (Roche) for 30 min. The protein content of the supernatants of lysates was determined using a bicinchoninic acid assay. […]

Question: CC(C)=CCC12OC(C)(C)C3CC(C=C4C(=O)c5c(OC(=O)N6CCC(N7CCCCC7)CC6)cccc5OC431)C2=O (stereo not shown) [Compound 8n] was tested. Which “expression levels of client proteins HER-2, Akt and Erk1/2” value [1] did it give?
Answer: dramatically reduced

Question: And the “expression of HIF-1α” value [1]?
Answer: decreased

Question: And the “expression of Hsp70” value [1]?
Answer: changed little

Question: What about the “invasion of inactivated HUVECs” value (HUVECs [2]) of the same compound?
Answer: almost completely inhibited

Question: And the IC50 (A549/cisplatin)?
Answer: 1100 ± 170 nM

Question: And the “tube-forming ability of HUVECs” value (HUVECs [3])?
Answer: significantly impaired

Question: And the “levels of cleaved caspase-3/PARP” value [4]?
Answer: increased
